Two compounds from patent US20240100020A1, “MEDICINE FOR RELIEVING OR E[…] […] AND PREPARATION METHOD THEREFOR” (Shenzhen ScienCare Pharmaceutical Co., Ltd., priority 2020, published 2024) can be followed below.

In the data set the test system is Rats. The experiment in a line: Addiction of tramadol and clonidine tablets and compound tablets (withdrawal after 30 days of administration). Conditions: for Body weight loss / Number of jumps: within one week after withdrawal; for Number of jumps and body weight loss compared with the blank control group (in words): after 30 consecutive days of administration. The procedure:
Rats weighing approximately 150 g, half male and half female, were taken and randomly divided into 10 groups, that is, a blank control group, a morphine group, a tramadol group, a clonidine group, and compound tablet groups 1 to 6 (the rats in the compound tablet group 1 were administered with the compound tablets of Example 1, the rats in the compound tablet group 2 were administered with the compound tablets of Example 2, the rats in the compound tablet group 3 were administered with the compound tablets of Example 3, the rats in the compound tablet group 4 were administered with the compound tablets of Example 6, the rats in the compound tablet group 5 were administered with the compound tablets of Example 7, and the rats in the compound tablet group 6 were administered with the compound tablets of Example 10).
The rats were administered 3 times a day for 30 days. Administration methods were as follows: (1) the blank control group: PO (oral administration); and 0 mg/kg/time; (2) the morphine group: ip (intraperitoneal injection); and 5 mg/kg/time in week 1, 10 mg/kg/time in week 2, 20 mg/kg/time in week 3, and 30 mg/kg/time from day 22 to day 30; (3) the tramadol group: PO; and 25 mg/kg/time in week 1, 50 mg/kg/time in week 2, 100 mg/kg/time in week 3, and 200 mg/kg/time from day 22 to day 30; (4) the clonidine group: PO; and 0.075 mg/kg/time in week 1, 0.15 mg/kg/time in week 2, 0.3 mg/kg/time in week 3, and 0.6 mg/kg/time from day 22 to day 30; (5) the compound tablet groups: PO; and 25 mg/kg/time in week 1, 50 mg/kg/time in week 2, 100 mg/kg/time in week 3, and 200 mg/kg/time from day 22 to day 30. Withdrawal symptoms and body weight changes within one week after withdrawal of the rats in each group were observed.

The mark [1] stands for this setting: PO 3 times a day for 30 days, 25/50/100/200 mg/kg/time rising by week.
The mark [2] stands for this setting: ip 3 times a day for 30 days, 5/10/20/30 mg/kg/time rising by week.

For `COc1cccc(C2(O)CCCCC2CN(C)C)c1` (stereo not drawn) [Tramadol group, tramadol], the “Number of jumps and body weight loss compared with the blank control group (in words)” value is recorded as “extremely significant differences”. Under setting [1], the “Body weight loss” value is given as 9.6 ± 2.3 g and the Number of jumps was determined as 17.3 ± 1.9.
Turning to `CN1CC[C@]23c4c5ccc(O)c4O[C@H]2[C@@H](O)C=C[C@H]3[C@H]1C5` [Morphine group, morphine], the “Number of jumps and body weight loss compared with the blank control group (in words)” value is “extremely significant differences”. Under setting [2], the “Body weight loss” value is recorded as 10.1 ± 2.1 g and the Number of jumps is listed as 20.1 ± 2.1.
